Measured values from patent US11999794B2, “Human mesothelin chimeric antigen receptors and uses thereof” (Novartis AG, priority 2013, dated 2024).
“Also recorded” adds a separate entry of the source.

Tests used:
PD-1 = experiment: Immunophenotyping of PBMC (FACS); assay type: in vivo, human; conditions: for decrease in PD-1 positive CD4 T cells compared to placebo / decrease in PD-1 positive CD8 T cells compared to placebo: adjusted for baseline
[1] = RAD001 levels in blood (trough)
[2] = target: T1, biotinylated mesothelin ECD (Homo sapiens, UniProt Q13421); experiment: SPR relative epitope binning in comparison to SS1; assay type: binding; conditions: 50 nM SS1 captured first, then scFv at 100 nM
T1 construct: made in house; host or cells: HEK293F (transient)
T1 sequence (Q13421 with tags, fused parts or gaps): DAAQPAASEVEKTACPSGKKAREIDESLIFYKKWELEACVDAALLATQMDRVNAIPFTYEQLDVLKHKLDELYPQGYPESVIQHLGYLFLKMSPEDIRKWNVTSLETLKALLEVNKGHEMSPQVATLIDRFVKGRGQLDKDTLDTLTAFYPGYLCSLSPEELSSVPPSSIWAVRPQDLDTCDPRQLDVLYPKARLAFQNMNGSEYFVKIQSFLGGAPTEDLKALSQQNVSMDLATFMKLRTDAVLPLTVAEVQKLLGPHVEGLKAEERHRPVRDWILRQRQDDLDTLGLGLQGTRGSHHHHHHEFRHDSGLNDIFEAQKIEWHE
Description: In embodiments, the competition assay is an SPR-based assay. Briefly, the antigen, e.g., human mesothelin, is immobilized on a surface. Through a microflow system, a reference antibody is injected over the antigen layer. Upon binding of the reference antibody to the antigen, an increase in signal, typically expressed in response units (RU) is detected, e.g., reference signal. After a desired time, a test antibody is injected over the antigen layer. If the test antibody binds to a different region or epitope of the antigen, then an additional increase in signal is detected, e.g., a 5% or more, 10% or more, 15% or more, 20% or more, 25% or more, 30% or more, 35%, or more, 40% or more, 45% or more, 50% or more, 55% of more, 60% or more, 65% or more, 70% or more, 75% or more, 80% or more, 85% or more, 90% or more, or 95% or more increase in signal, e.g., RU, as compared to the highest signal detected upon binding of the reference antibody, e.g., the reference signal. If the test antibody binds to the same region or epitope of the antigen, then little or no increase in signal, e.g., RU, will be detected, e.g., less than 20%, less than 15%, less than 10%, less than 5%, less than 4%, less than 3%, less than 2%, or less than 1% increase in signal, e.g., RU, as compared to the highest signal detected upon binding of the reference antibody, e.g., the reference signal. When using this SPR-based competition assay, an antibody is said to compete with the reference antibody when less than 20%, less than 15%, less than 10%, less than 5%, less than 4%, less than 3%, less than 2%, or less than 1% increase in signal, e.g., RU, is detected when compared to the reference signal detected upon binding of the reference antibody to the antigen. An antibody is said to not compete, or compete poorly, with a reference antibody when a 5% or more, 10% or more, 15% or more, 20% or more, 25% or more, 30% or more, 35%, or more, 40% or more, 45% or more, 50% or more, 55% of more, 60% or more, 65% or more, 70% or more, 75% or more, 80% or more, 85% or more, 90% or more, or 95% or more increase in signal, e.g., RU, is detected when compared to the reference signal detected upon binding of the reference antibody to the antigen.
To determine the relative binding epitope of each of the scFvs in comparison to SS1, 50 nM SS1 was captured by biotinylated mesothelin ECD immobilized on a streptavidin sensor chip at a contact time of 180 seconds resulting in a relative density of 70 RU. Purified scFv at 100 nM (M5, M11, M12, M14, M16, M17, M21, or M23) was then immediately injected over the chip to minimize dissociation of the SS1/mesothelin complex. Binding of the secondary scFv was monitored for 270 seconds.

Ovcar8 = Ovcar8 xenograft model (Example 8); assay type: in vivo, NSG mice; conditions: 2×10^6 CART cells i.v. at day 14
Description: Anti-tumor activity of CART-MSLN was assessed in vivo in an Ovcar8 xenograft model. 10×10^6 Ovcar8 cells were implanted subcutaneously on day 0 in NSG mice. At day 14, 2×10^6 CART cells (CARTs expressing M5, M11, M17, M21, SS1, and CD19, or untransduced cells; 10×10^6 total T cells) in a 100 μl dose was administered intravenously. Mice and tumors were monitored for about 40 days after tumor cell implantation.
A second in vivo xenograft experiment was performed to assess the anti-tumor activity of a second set of CART-MSLN cells. 10×10^6 OVCAR8-mcherry cells were injected into NSG mice. Once tumors were 150-250 mm^2, mice were randomized into treatment groups. CARTs expressing M12, M14, M16, M23, ss1, CD19, or untreated cells were injected at a dose of 10×10^6 T cells in 100 μl. About 40% of T cells were expressing CAR, and therefore at the administered dosage, about 4×10^6 CART cells were delivered to each animal.

Molecule	percentage of PD-1 positive CD4 and CD8 cells compared to placebo cohorts (PD-1; in vivo)	decrease in PD-1 positive CD4 T cells compared to placebo (PD-1; week 6, pooled cohort (n=84)) [%]	decrease in PD-1 positive CD8 T cells compared to placebo (PD-1; week 6, pooled cohort (n=84)) [%]	decrease in PD-1 positive CD4 T cells compared to placebo (PD-1; week 12, pooled cohort) [%]	decrease in PD-1 positive CD8 T cells compared to placebo (PD-1; week 12, pooled cohort) [%]	change in PD-1-positive CD8 T cells compared to placebo (PD-1; week 12, 0.5 mg/Day, 5 mg/Week and 20 mg/Week cohorts)	average trough level ([1]; 0.5 mg daily) [ng/mL]	average trough level ([1]; 5 mg weekly)	average trough level ([1]; 20 mg weekly) [ng/mL]	trough level of study regimens relative to approved regimens ([1]; in vivo)	relative epitope binning against SS1 on human mesothelin [2]	anti-tumor activity, first xenograft experiment (Ovcar8)
CO[C@H]1C[C@@H]2CC[C@@H](C)[C@@](O)(O2)C(=O)C(=O)N2CCCC[C@H]2C(=O)O[C@H]([C@H](C)C[C@@H]2CC[C@@H](OCCO)[C@H](OC)C2)CC(=O)[C@H](C)/C=C(\C)[C@@H](O)[C@@H](OC)C(=O)[C@H](C)C[C@H](C)/C=C/C=C/C=C/1C [RAD001, (1R,9S,12S,15R,16E,18R,19R,21R,23 S,24E,26E,28E,30S,32S,35R)-1,18-dihydroxy-12-{(1R)-2-[(1 S,3R,4R)-4-(2-hydroxyethoxy)-3-methoxycyclohexyl]-1-methylethyl}-19,30-dimethoxy-15,17,21,23,29,35-hexamethyl-11,36-dioxa-4-aza-tricyclo[30.3.1.04,9]hexatriaconta-16,24,26,28-tetraene-2,3,10,14,20-pentaone]	lower in the RAD001 as compared to placebo cohorts	30.2	37.4	32.7	41.4	−43.3-−38.5%	0.9	below detection limits	0.7	3-20 fold lower		
M5: human anti-mesothelin scFv SEQ ID NO: 43; full CAR SEQ ID NO: 67 (protein) scFv: QVQLVQSGAEVEKPGASVKVSCKASGYTFTDYYMHWVRQAPGQGLEWMGWINPNSGGTNYAQKFQGRVTMTRDTSISTAYMELSRLRSDDTAVYYCASGWDFDYWGQGTLVTVSSGGGGSGGGGSGGGGSGGGGSDIVMTQSPSSLSASVGDRVTITCRASQSIRYYLSWYQQKPGKAPKLLIYTASILQNGVPSRFSGSGSGTDFTLTISSLQPEDFATYYCLQTYTTPDFGPGTKVEIK											bind to a different epitope than SS1; also recorded: bind to a unique epitope	strong anti-tumor activity
M11: human anti-mesothelin scFv SEQ ID NO: 49; full CAR SEQ ID NO: 73 (protein) scFv: QVQLQQSGAEVKKPGASVKVSCKASGYTFTGYYMHWVRQAPGQGLEWMGWINPNSGGTNYAQNFQGRVTMTRDTSISTAYMELRRLRSDDTAVYYCASGWDFDYWGQGTLVTVSSGGGGSGGGGSGGGGSGGGGSDIRMTQSPSSLSASVGDRVTITCRASQSIRYYLSWYQQKPGKAPKLLIYTASILQNGVPSRFSGSGSGTDFTLTISSLQPEDFATYYCLQTYTTPDFGPGTKVEIK											bind to a different epitope than SS1; also recorded: bind to a unique epitope	strong anti-tumor activity
